System: eNOS promoter
Test: Activation of eNOS transcription (eNOS promoter-luciferase reporter gene assay)
Format: cell-based, human
Conditions: 18 h incubation; for EC50: EC50 of transcription induction ratio vs compound concentration, determined graphically, human endothelial cell line stably transfected with eNOS promoter-luciferase construct; for maximal fold induction / TIR(max): maximum transcription induction ratio (luciferase activity with compound / solvent alone), human endothelial cell line with eNOS promoter-luciferase construct; for maximal fold induction: read-out: TIR(max)
Method: Measurement of Activation of eNOS Transcription
Activation of eNOS transcription was measured as described in detail in Li et al. “Activation of protein kinase C alpha and/or epsilon enhances transcription of the human endothelial nitric oxide synthase gene”, Mol. Pharmacol. 1998; 53: 630-637.
Briefly, a 3.5 kB long fragment 5′ of the starting codon of the eNOS gene was cloned, sequenced and cloned in firefly luciferase expression plasmids to monitor activation of the eNOS promoter by reporter gene activity. A human endothelial cell line stable transfected and expressing this promoter-reporter construct was used for compound testing. Cells were incubated for 18 h with compounds.
All compounds were dissolved in sterile DMSO. A final concentration of 0.5% DMSO in complete medium was allowed. Induction of reporter gene expression in these cells was measured using a standard luciferase assay system (Promega, Cat. No E150) according to the manufacturer's instructions. Luciferase induction in cells incubated with compounds were compared to those incubated with solvent alone. The ratio of both activities (transcription induction ratio, TIR) was plotted as a function of compound concentration. Typically, TIR values started at low concentrations at a ratio of 1, indicating no compound effect, and extended up to a maximum TIR value TIR(max) which indicates the increase of the eNOS transcription. EC50 values of transcription induction ratios as a function of compound concentration were determined graphically.

SMILES | EC50 [nM] | TIR(max) | maximal fold induction
Cc1cc(C)c(C(=O)NC2CCCc3ccccc3C2)cn1 (single isomer, unassigned) [Compound 110, 4,6-DIMETHYL-N-(6,7,8,9-TETRAHYDRO-5H-BENZOCYCLOHEPTEN-6-YL)-NICOTINAMIDE] | 1000 |  | 3.1
Cc1c(NS(C)(=O)=O)cccc1C(=O)NC1CCCc2ccccc2C1 (stereo not drawn) [Compound 99, 3-METHANESULFONYLAMINO-2-METHYL-N-(6,7,8,9-TETRAHYDRO-5H-BENZOCYCLOHEPTEN-6-YL)-BENZAMIDE] | 2800 |  | 2.5
CNc1cncc(C(=O)NC2CCCc3ccccc3C2)n1 (stereo not drawn) [Compound 76, 6-METHYLAMINO-PYRAZINE-2-CARBOXYLIC ACID (6,7,8,9-TETRAHYDRO-5H-BENZOCYCLOHEPTEN-6-YL)-AMIDE] | 572 |  | 3.1
O=C(NC1CCCc2ccccc2C1)c1cnc(N2CCOCC2)nc1 (stereo not drawn) [Compound 64, 2-MORPHOLIN-4-YL-PYRIMIDINE-5-CARBOXYLIC ACID (6,7,8,9-TETRAHYDRO-5H-BENZOCYCLOHEPTEN-6-YL)-AMIDE] | 16000 |  | 3.1
O=C(NC1CCCc2ccccc2C1)c1cn2ccccc2n1 (stereo not drawn) [Compound 85, IMIDAZO[1,2-A]PYRIDINE-2-CARBOXYLIC ACID (6,7,8,9-TETRAHYDRO-5H-BENZOCYCLOHEPTEN-6-YL)-AMIDE] | 15000 |  | 3
Cc1cncc(C(=O)NC2CCCc3ccccc3C2)c1 (stereo not drawn) [Compound 91, 5-METHYL-N-(6,7,8,9-TETRAHYDRO-5H-BENZOCYCLOHEPTEN-6-YL)-NICOTINAMIDE] | 2300 |  | 2.9
Cc1c(C(=O)NC2CCCc3ccccc3C2)cnn1-c1ccccc1 (single isomer, unassigned) [Compound 31, 5-METHYL-1-PHENYL-1H-PYRAZOLE-4-CARBOXYLIC ACID (6,7,8,9-TETRAHYDRO-5H-BENZOCYCLOHEPTEN-6-YL)-AMIDE] | 5000 |  | 2.8
Cc1nc(C)c(C(=O)NC2CCCc3ccccc3C2)s1 (single isomer, unassigned) [Compound 29, 2,4-DIMETHYL-THIAZOLE-5-CARBOXYLIC ACID (6,7,8,9-TETRAHYDRO-5H-BENZOCYCLOHEPTEN-6-YL)-AMIDE] | 9600 | 3.4 | 
Cc1ccc(C(=O)N[C@H]2CCCc3ccccc3C2)cc1NS(C)(=O)=O [Compound 119, (S)-3-METHANESULFONYLAMINO-4-METHYL-N-(6,7,8,9-TETRAHYDRO-5H-BENZOCYCLOHEPTEN-6-YL)-BENZAMIDE] | 230 |  | 3
Cc1ccc(C(=O)NC2CCCc3ccccc3C2)c(O)n1 (stereo not drawn) [Compound 11, 2-HYDROXY-6-METHYL-N-(6,7,8,9-TETRAHYDRO-5H-BENZOCYCLOHEPTEN-6-YL)-NICOTINAMIDE] | 2100 |  | 2
Cc1ncsc1C(=O)NC1CCCc2ccccc2C1 (stereo not drawn) [Compound 109, 4-METHYL-THIAZOLE-5-CARBOXYLIC ACID (6,7,8,9-TETRAHYDRO-5H-BENZOCYCLOHEPTEN-6-YL)-AMIDE] | 1800 |  | 2.8
O=C(NC1CCCc2ccccc2C1)c1nc(NCc2ccccc2)ccc1Cl (stereo not drawn) [143 B] | 28000 | 2.5 | 
CNc1nc(C)ccc1C(=O)NC1CCCc2ccccc2C1 (single isomer, unassigned) [Compound 123, 6-METHYL-2-METHYLAMINO-N-(6,7,8,9-TETRAHYDRO-5H-BENZOCYCLOHEPTEN-6-YL)-NICOTINAMIDE] | 260 |  | 2.9
CS(=O)(=O)Nc1cccnc1C(=O)NC1CCCc2ccccc2C1 (stereo not drawn) [Compound 145, 3-METHANESULFONYLAMINO-PYRIDINE-2-CARBOXYLIC ACID (6,7,8,9-TETRAHYDRO-5H-BENZOCYCLOHEPTEN-6-YL)-AMIDE] | 3800 |  | 1.6
O=C(NC1CCCc2ccccc2C1)c1cnn(-c2ccccc2)c1C(F)(F)F (single isomer, unassigned) [Compound 35, 1-PHENYL-5-TRIFLUOROMETHYL-1H-PYRAZOLE-4-CARBOXYLIC ACID (6,7,8,9-TETRAHYDRO-5H-BENZOCYCLOHEPTEN-6-YL)-AMIDE] | 3300 | 3.5 | 
N#Cc1ccc(C(=O)NC2CCCc3ccccc3C2)cn1 (stereo not drawn) [Compound 21, 6-CYANO-N-(6,7,8,9-TETRAHYDRO-5H-BENZOCYCLOHEPTEN-6-YL)-NICOTINAMIDE] | 8200 |  | 2.6

Compounds with a lower EC50, results first:

EC50 [nM] | TIR(max) | SMILES | maximal fold induction
128 |  | COCc1ccc(C(=O)N[C@H]2CCCc3ccccc3C2)cn1 [Compound 133, (S)-6-METHOXYMETHYL-N-(6,7,8,9-TETRAHYDRO-5H-BENZOCYCLOHEPTEN-6-YL)-NICOTINAMIDE] | 3.1
10 |  | Nc1cccnc1C(=O)NC1CCCc2ccccc2C1 (stereo not drawn) [Compound 144, 3-AMINO-PYRIDINE-2-CARBOXYLIC ACID (6,7,8,9-TETRAHYDRO-5H-BENZOCYCLOHEPTEN-6-YL)-AMIDE] | 2.9
140 |  | O=C(N[C@H]1CCCc2ccccc2C1)c1ccc(N2CCCC2)nc1 [Compound 118, (S)-6-PYRROLIDIN-1-YL-N-(6,7,8,9-TETRAHYDRO-5H-BENZOCYCLOHEPTEN-6-YL)-NICOTINAMIDE] | 3
49 |  | Cc1nc(C)c(C(=O)NC2CCCc3ccccc3C2)s1 (single isomer, unassigned) [Compound 28, 2,4-DIMETHYL-THIAZOLE-5-CARBOXYLIC ACID (6,7,8,9-TETRAHYDRO-5H-BENZOCYCLOHEPTEN-6-YL)-AMIDE] | 3.4
19 |  | Cc1cnc(C(=O)NC2CCCc3ccccc3C2)c(N)n1 (stereo not drawn) [Compound 59, 3-AMINO-5-METHYL-PYRAZINE-2-CARBOXYLIC ACID (6,7,8,9-TETRAHYDRO-5H-BENZOCYCLOHEPTEN-6-YL)-AMIDE] | 3.2
42 |  | Cc1ccc(C(=O)NC2CCCc3ccccc3C2)cn1 (single isomer, unassigned) [Compound 54, 6-METHYL-N-(6,7,8,9-TETRAHYDRO-5H-BENZOCYCLOHEPTEN-6-YL)-NICOTINAMIDE] | 3.2
80 |  | CN(C)c1cccc(C(=O)NC2CCCc3ccccc3C2)c1 (single isomer, unassigned) [Compound 43, 3-DIMETHYLAMINO-N-(6,7,8,9-TETRAHYDRO-5H-BENZOCYCLOHEPTEN-6-YL)-BENZAMIDE] | 3.2
< 80 |  | Cc1cc(Cl)ccc1C(=O)NC1CCCc2ccccc2C1 (stereo not drawn) [Compound 3, 4-CHLORO-2-METHYL-N-(6,7,8,9-TETRAHYDRO-5H-BENZOCYCLOHEPTEN-6-YL)-BENZAMIDE] | 2.2
20 |  | Cc1nc(N)c(C(=O)N[C@H]2CCCc3ccccc3C2)nc1C [Compound 115, (S)-3-AMINO-5,6-DIMETHYL-PYRAZINE-2-CARBOXYLIC ACID (6,7,8,9-TETRAHYDRO-5H-BENZOCYCLOHEPTEN-6-YL)-AMIDE] | 3
41 |  | Cc1nc(C2CC2)sc1C(=O)N[C@H]1CCCc2ccccc2C1 [Compound 120, (S)-2-CYCLOPROPYL-4-METHYL-THIAZOLE-5-CARBOXYLIC ACID (6,7,8,9-TETRAHYDRO-5H-BENZOCYCLOHEPTEN-6-YL)-AMIDE] | 3.1
136 |  | CN(C)c1ccc(C(=O)N[C@H]2CCCc3ccccc3C2)cn1 [Compound 117, (S)-6-DIMETHYLAMINO-N-(6,7,8,9-TETRAHYDRO-5H-BENZOCYCLOHEPTEN-6-YL)-NICOTINAMIDE] | 3
30 | 2.9 | Cc1cnc(C(=O)N[C@H]2CCCc3ccccc3C2)c(N)n1 [Compound 114, (S)-3-AMINO-5-METHYL-PYRAZINE-2-CARBOXYLIC ACID (6,7,8,9-TETRARYDRO-5H-BENZOCYCLOHEPTEN-6-YL)-AMIDE] | 
136 |  | O=C(NC1CCCc2ccccc2C1)c1cccc2[nH]ccc12 (stereo not drawn) [Compound 12, 1H—INDOLE-4-CARBOXYLIC ACID (6,7,8,9-TETRAHYDRO-5H-BENZOCYCLOHEPTEN-6-YL)-AMIDE] | 3
150 |  | CNc1cncc(C(=O)N[C@H]2CCCc3ccccc3C2)n1 [Compound 116, (S)-6-METHYLAMINO-PYRAZINE-2-CARBOXYLIC ACID (6,7,8,9-TETRAHYDRO-5H-BENZOCYCLOHEPTEN-6-YL)-AMIDE] | 2.9
30 |  | Nc1ncccc1C(=O)NC1CCCc2ccccc2C1 (single isomer, unassigned) [Compound 24, 2-AMINO-N-(6,7,8,9-TETRAHYDRO-5H-BENZOCYCLOHEPTEN-6-YL)-NICOTINAMIDE] | 3.1
168 | 3 | Cc1cc(C)c(C(=O)NC2CCCc3ccccc3C2)c(N)n1 (stereo not drawn) [Compound 56, 2-AMINO-4,6-DIMETHYL-N-(6,7,8 9-TETRAHYDRO-5H-BENZOCYCLOHEPTEN-6-YL)-NICOTINAMIDE] | 
15 |  | Cc1cc(C(=O)N[C@H]2CCCc3ccccc3C2)n(C)n1 [Compound 122, (S)-2,5-DIMETHYL-2H-PYRAZOLE-3-CARBOXYLIC ACID (6,7,8,9-TETRAHYDRO-5H-BENZOCYCLOHEPTEN-6-YL)-AMIDE] | 2.85

— patent US7709478B2, “Acylated 6,7,8,9-tetrahydro-5H-benzocycloheptenyl amines and their use as pharmaceutical agents” (sanofi-aventis Deutschland GmbH, priority 2001, dated 2010)
